Test results: ChEMBL document CHEMBL1201862, “PubChem BioAssay data set” (2004)
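A five-concentration, 48-hour dose response in 96-well plates underlies each endpoint, interpolated linearly between surrounding concentrations. GI50: concentration for 50% inhibition of growth.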 Calls of active or inactive are those of the source. Cut-off read from the data, not from the text of the source: active = GI50 up to about 1.1 µM and inactive = higher.

How the values were obtained:
Experiment in all cases: NCI anticancer screen, dose series, 48 h
OVCAR-8 = tested on: OVCAR-8
U-251 = tested on: U-251
MOLT-4 = tested on: MOLT-4
RXF 393 = tested on: RXF 393
ACHN = tested on: ACHN
HCC 2998 = tested on: HCC 2998
NCI-H522 = tested on: NCI-H522
SF-539 = tested on: SF-539
UACC-257 = tested on: UACC-257
OVCAR-3 = tested on: OVCAR-3
HCT-15 = tested on: HCT-15
UO-31 = tested on: UO-31
T47D = tested on: T47D
NCI/ADR-RES = tested on: NCI/ADR-RES
HOP-62 = tested on: HOP-62
DU-145 = tested on: DU-145
TK-10 = tested on: TK-10
M14 = tested on: M14
MCF7 = tested on: MCF7
786-0 = tested on: 786-0

Row | Compound | GI50 (OVCAR-8) | GI50 (U-251) | GI50 (MOLT-4) | GI50 (RXF 393) | GI50 (ACHN) | GI50 (HCC 2998) | GI50 (NCI-H522) | GI50 (SF-539) | GI50 (UACC-257) | GI50 (OVCAR-3) | GI50 (HCT-15) [µM] | GI50 (UO-31) | GI50 (T47D) | GI50 (NCI/ADR-RES) | GI50 (HOP-62) | GI50 (DU-145) | GI50 (TK-10) | GI50 (M14) | GI50 (MCF7) | GI50 (786-0)
1 | CCOC(=O)CCC(NC(=O)c1ccc(Oc2nc3ccccc3nc2-c2ccccc2)cc1)C(=O)OCC (stereo not given) | 3.55 µM (inactive) | 15.1 µM (inactive) | > 100 µM (inactive) | 20.1 µM (inactive) | 7.35 µM (inactive) | > 100 µM (inactive) | 11.3 µM (inactive) | 3.6 µM (inactive) | > 100 µM (inactive) | 15.4 µM (inactive) | > 100 | 34 µM (inactive) | > 29.8 µM (inactive) | 6.34 µM (inactive) | 11.2 µM (inactive) | 41 µM (inactive) | 17.5 µM (inactive) | > 62.1 µM (inactive) | > 100 µM (inactive) | 3.67 µM (inactive)
2 | CCCCC(=O)OC[n+]1cccc(-c2c(COC(=O)NC(C)C)c(COC(=O)NC(C)C)c3n2CCC3)c1 | 44 µM (inactive) | 45.3 µM (inactive) | 8.93 µM (inactive) | 22.9 µM (inactive) | 21.3 µM (inactive) | > 100 µM (inactive) | 23 µM (inactive) | 28.6 µM (inactive) | 44.7 µM (inactive) | 57.3 µM (inactive) | 53.3 | 27 µM (inactive) | > 83.2 µM (inactive) | 34.9 µM (inactive) | 56.1 µM (inactive) | 25.8 µM (inactive) | 42.1 µM (inactive) | 40.5 µM (inactive) | 28.8 µM (inactive) | 23.1 µM (inactive)
3 | O=C(NC(O)(C(F)(F)F)C(F)(F)F)c1ccccc1 | > 100 µM (inactive) | > 100 µM (inactive) | > 100 µM (inactive) | > 100 µM (inactive) | > 100 µM (inactive) | > 100 µM (inactive) | > 100 µM (inactive) | > 100 µM (inactive) | > 100 µM (inactive) | > 100 µM (inactive) | > 100 | > 100 µM (inactive) | > 100 µM (inactive) | > 100 µM (inactive) | > 100 µM (inactive) | > 100 µM (inactive) | > 100 µM (inactive) | > 100 µM (inactive) | > 100 µM (inactive) | > 100 µM (inactive)
4 | Nc1ccc(S(=O)(=O)Nc2ccc(Nc3c4ccccc4nc4ccccc34)cc2)cc1 | 0.041 µM (active) | 0.0154 µM (active) | < 0.01 µM (active) | 0.316 µM (active) | < 0.0114 µM (active) | 0.164 µM (active) | 0.0695 µM (active) | 0.0166 µM (active) | 1.87 µM (inactive) | 0.245 µM (active) | 0.579 | 0.195 µM (active) | 0.0637 µM (active) | 4.83 µM (inactive) | < 0.0119 µM (active) | < 0.01 µM (active) | 0.566 µM (active) | 0.0298 µM (active) | < 0.01 µM (active) | 0.0413 µM (active)
5 | O=c1[nH]c(=O)n([C@@H]2O[C@H](CO)[C@@H](O)[C@@H]2F)cc1I [FIALURIDINE] | > 100 µM (inactive) | > 100 µM (inactive) | 56 µM (inactive) | 54.1 µM (inactive) | > 100 µM (inactive) | > 100 µM (inactive) | > 100 µM (inactive) | > 100 µM (inactive) | > 100 µM (inactive) | > 100 µM (inactive) | > 100 | > 100 µM (inactive) | > 100 µM (inactive) | > 100 µM (inactive) | > 100 µM (inactive) | > 100 µM (inactive) | > 100 µM (inactive) | 77.6 µM (inactive) | 67.6 µM (inactive) | > 100 µM (inactive)
